Test results reported in the supplement of paper PMC11451515.

Test system: P12-Ichikawa
Test: cell viability relative to DMSO control; higher = less cytotoxic
Settings: 48 h
Outline: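 Cells were incubated for 48 h at 37°C before CellTiter-Glo One luminescence was read. The cells were NOMO1 or SEM (500 cells/well) or P12-Ichikawa (1000 cells/well) leukemia cells, adapted for at least four passages in each medium and seeded in 1536-well plates (5 μl). Dosing used library compounds in DMSO applied by pin over 11 threefold points, 47 μM to 0.79 nM. Viability is the per-plate percentage of DMSO wells, with cell-free wells as background.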

[1] = HPLM + 10% dialyzed FBS, 0.000781 µM
[2] = HPLM + 10% dialyzed FBS, 0.00234 µM
[3] = HPLM + 10% dialyzed FBS, 0.00702 µM
[4] = HPLM + 10% dialyzed FBS, 0.0211 µM
[5] = HPLM + 10% dialyzed FBS, 0.0632 µM
[6] = HPLM + 10% dialyzed FBS, 0.19 µM
[7] = HPLM + 10% dialyzed FBS, 0.569 µM
[8] = HPLM + 10% dialyzed FBS, 1.71 µM
[9] = HPLM + 10% dialyzed FBS, 5.12 µM
[10] = HPLM + 10% dialyzed FBS, 15.4 µM
[11] = HPLM + 10% dialyzed FBS, 46.1 µM
[12] = RPMI 5 mM glucose + 10% dialyzed FBS, 0.000781 µM
[13] = RPMI 5 mM glucose + 10% dialyzed FBS, 0.00234 µM
[14] = RPMI 5 mM glucose + 10% dialyzed FBS, 0.00702 µM
[15] = RPMI 5 mM glucose + 10% dialyzed FBS, 0.0211 µM
[16] = RPMI 5 mM glucose + 10% dialyzed FBS, 0.0632 µM
[17] = RPMI 5 mM glucose + 10% dialyzed FBS, 0.19 µM
[18] = RPMI 5 mM glucose + 10% dialyzed FBS, 0.569 µM
[19] = RPMI 5 mM glucose + 10% dialyzed FBS, 1.71 µM
[20] = RPMI 5 mM glucose + 10% dialyzed FBS, 5.12 µM
[21] = RPMI 5 mM glucose + 10% dialyzed FBS, 15.4 µM
[22] = RPMI 5 mM glucose + 10% dialyzed FBS, 46.1 µM
[23] = RPMI 5 mM glucose + 10% FBS, 0.000781 µM
[24] = RPMI 5 mM glucose + 10% FBS, 0.00234 µM
[25] = RPMI 5 mM glucose + 10% FBS, 0.00702 µM
[26] = RPMI 5 mM glucose + 10% FBS, 0.0211 µM
[27] = RPMI 5 mM glucose + 10% FBS, 0.0632 µM
[28] = RPMI 5 mM glucose + 10% FBS, 0.19 µM
[29] = RPMI 5 mM glucose + 10% FBS, 0.569 µM
[30] = RPMI 5 mM glucose + 10% FBS, 1.71 µM
[31] = RPMI 5 mM glucose + 10% FBS, 5.12 µM
[32] = RPMI 5 mM glucose + 10% FBS, 15.4 µM
[33] = RPMI 5 mM glucose + 10% FBS, 46.1 µM

Compound	cell viability [1]	cell viability [2]	cell viability [3]	cell viability [4]	cell viability [5]	cell viability [6]	cell viability [7]	cell viability [8]	cell viability [9]	cell viability [10]	cell viability [11]	cell viability [12]	cell viability [13]	cell viability [14]	cell viability [15]	cell viability [16]	cell viability [17]	cell viability [18]	cell viability [19]	cell viability [20]	cell viability [21]	cell viability [22]	cell viability [23]	cell viability [24]	cell viability [25]	cell viability [26]	cell viability [27]	cell viability [28]	cell viability [29]	cell viability [30]	cell viability [31]	cell viability [32]	cell viability [33]
Cc1cc(-c2nnc3n2CCCCC3)c(C)n1-c1ccccc1	120%	117%	122%	119%	118%	116%	118%	117%	115%	117%	104%	125%	119%	118%	125%	118%	119%	124%	126%	122%	109%	111%											
COC1=CC(=CC=C1)C2=CC=C(NC(=O)/C3=C(/CCC3)C(O)=O)C(=C2)F	111%	113%	116%	110%	110%	113%	113%	106%	100%	80.1%	57.6%	109%	120%	114%	105%	110%	110%	113%	106%	92.2%	69.6%	37.4%	116%	116%	118%	113%	109%	111%	105%	105%	96.6%	79.6%	51.7%
C[C@]12CC[C@@H]3c4ccc(O)cc4CC[C@H]3[C@@H]1CC[C@@H]2O	116%	111%	113%	106%	112%	116%	105%	102%	100%	88.9%	27.1%	108%	111%	109%	101%	103%	102%	102%	94.3%	94.1%	75.5%	28.6%	118%	112%	115%	115%	105%	111%	112%	108%	107%	105%	20.9%
CC(=O)Oc1cc2c(s1)CCN(C(C(=O)C1CC1)c1ccccc1F)C2.Cl (stereo not given)	95%	102%	100%	107%	107%	103%	107%	112%	101%	106%	65.1%	95.9%	105%	102%	104%	103%	112%	104%	101%	99.7%	80.3%	50.3%	100%	106%	101%	111%	115%	124%	116%	133%	101%	94.8%	53.5%
CN(c1nccc(=O)[nH]1)C1CCN(c2nc3ccccc3n2Cc2ccc(F)cc2)CC1	108%	104%	109%	110%	111%	119%	118%	118%	114%	112%	110%	100%	108%	109%	108%	125%	113%	121%	112%	123%	119%	112%	113%	110%	101%	114%	124%	111%	116%	109%	115%	115%	123%
O=P1(N(CCCl)CCCl)NCCCO1 (stereo not given)	112%	113%	115%	113%	106%	109%	101%	106%	98.1%	16.5%	6.1%	115%	109%	106%	102%	107%	117%	108%	101%	101%	90%	17.3%	112%	113%	109%	113%	108%	113%	112%	102%	101%	51.8%	8.07%
CC(C)(C)Cn1c(N)nc2ccc(-c3[nH]c(C(C)(C)C)nc3-c3ccc(F)cc3)nc21	92.1%	96.3%	92.3%	96%	87.2%	78.7%	90.1%	78.9%	91.5%	85.3%	85.4%	85.8%	83.4%	85.4%	84.5%	86.1%	89.1%	83.6%	84.1%	77.9%	83%	81%	95.4%	83.8%	78.3%	90.6%	86.4%	94.1%	83%	81.2%	77.9%	95.5%	89.1%
Cn1c(=O)c2[nH]cnc2n(C)c1=O	104%	113%	116%	114%	111%	110%	116%	109%	114%	106%	104%	115%	111%	113%	107%	111%	116%	107%	108%	111%	99.7%	94.2%	112%	113%	115%	117%	109%	115%	124%	106%	112%	108%	105%
CCCOc1ccc2[nH]c(NC(=O)OC)nc2c1	125%	122%	107%	99.4%	54.5%	35.3%	17.2%	21.8%	25.3%	18.8%	23.2%																						
CN(C)/[N+]([O-])=N/Oc1cc(ON[N+](=O)N2CCN(C(=O)c3cc(Cc4n[nH]c(=O)c5ccccc45)ccc3F)CC2)c([N+](=O)[O-])cc1[N+](=O)[O-]	102%	105%	111%	112%	120%	109%	106%	106%	105%	106%	99.4%	97%	96.2%	115%	101%	109%	108%	120%	111%	100%	106%	103%	106%	117%	116%	120%	117%	121%	120%	130%	108%	114%	119%
Nc1nc(Nc2ccc([S+](N)(=O)[O-])cc2)nn1C(=O)c1c(F)cccc1F	104%	109%	103%	106%	112%	110%	106%	112%	90.7%	101%	21.5%	111%	106%	105%	107%	114%	115%	109%	108%	84.9%	86.6%	24.3%	107%	106%	110%	113%	104%	105%	111%	101%	83.7%	81.7%	23.1%
C/C(=C\c1csc(C)n1)[C@@H]1C[C@@H]2O[C@@H]2CCC[C@H](C)[C@H](O)[C@@H](C)C(=O)C(C)(C)[C@@H](O)CC(=O)O1	37.2%	25.2%	25%	26.8%	27.1%	24.6%	23.9%	25.2%	21.1%	21.5%	22.6%	67.2%	27.9%	33.6%	27.2%	34.7%	33.1%	33.7%	31.4%	29.1%	31.3%	35.9%	28.8%	14.8%	19.1%	20.3%	20%	20.6%	21.6%	20.8%	17.4%	18.1%	19.3%
OC1=CC2=C(C(=O)\C=C(/O2)C3=CC=CC=C3)C(=C1O)O	114%	110%	120%	113%	113%	106%	111%	109%	64.9%	9.59%	10.4%	113%	117%	120%	112%	111%	110%	112%	118%	108%	23.7%	23.2%	117%	112%	104%	118%	120%	111%	117%	116%	114%	13.3%	12%
COc1nccc(-c2c(-c3ccc(F)cc3)ncn2C2CCC(O)CC2)n1 (stereo not given)	121%	117%	112%	108%	118%	115%	103%	105%	101%	98.3%	75.1%	126%	121%	114%	117%	120%	123%	118%	115%	115%	115%	41.2%	113%	120%	122%	116%	111%	110%	117%	112%	110%	106%	86.3%
CCCC(CCC)C(=O)[O-]	87.4%	96.6%	103%	102%	106%	104%	102%	103%	109%	105%	101%	94.2%	102%	102%	114%	112%	107%	104%	101%	107%	106%	96.5%	88.6%	103%	105%	110%	115%	119%	105%	108%	105%	105%	94.8%
C[N+](C)(C)CC(=O)O.[Cl-]	86.5%	92%	93%	92.6%	93.7%	87%	98.2%	89.8%	99.3%	88.2%	99.1%	81.8%	87.4%	85.4%	86%	91.1%	82.4%	90.7%	88.1%	82.9%	90.4%	81.7%	86.4%	94.4%	90.9%	94.7%	91.8%	91.5%	98%	91.5%	94.1%	98%	93.7%
